The source of these data is ChEMBL document CHEMBL1143251 (J Med Chem, 2008).

Calls of active or inactive are those of the source. The rule behind the calls is not given here. Where only a bound is given, the exact number is not on record here.

For one assay, the species on record is Rattus norvegicus. The assay is described as follows: Ratio of Ki for rat sigma1 opioid receptor to Ki for rat sigma2 opioid receptor.
Assay [1] is described as follows: Displacement of [3H]DTG from opioid sigma2 receptor in rat brain homogenate. The assay is classed as tissue-based. (In general: In a radioligand displacement assay an active substance lowers the binding of a labelled ligand.)
Assay [2] addresses Sigma non-opioid intracellular receptor 1 (Rattus norvegicus, UniProt Q9R0C9). The assay is described as follows: Displacement of [3H](+)-pentazocine from opioid sigma1 receptor in rat brain homogenate. The assay is classed as tissue-based.
A further assay relates to Mus musculus. The assay is described as follows: Inhibition of cocaine-induced convulsions in ip dosed Swiss Webster mouse after 15 mins. The assay is classed as functional, organism-based.
Assay [3] addresses Sodium-dependent serotonin transporter (Rattus norvegicus, UniProt P31652). The assay is described as follows: Displacement of [3H]paroxetine from serotonin transporter in rat brain homogenate. It counts as tissue-based.
Assay [4] in a line: Displacement of [3H]bremazocine from opioid receptor in rat brain homogenate. It counts as tissue-based.
A short description of assay [5]: Displacement of [3H]ketanserin from 5HT2 receptor in rat brain homogenate. It counts as tissue-based.
Assay [6] has as its target Sodium-dependent dopamine transporter (Rattus norvegicus, UniProt P23977). The assay is described as follows: Displacement of [3H]WIN-35428 from dopamine transporter in rat brain homogenate. The assay is classed as tissue-based.
A further assay addresses Glutamate NMDA receptor. The assay is described as follows: Displacement of [3H]TCP from NMDA receptor in rat brain homogenate. It counts as tissue-based.
Assay [7] addresses Norepinephrine transporter (Rattus norvegicus, UniProt Q9WTR4). The assay is described as follows: Displacement of [3H]nisoxetine from norepinephrine transporter in rat brain homogenate. It counts as tissue-based.

Sigma non-opioid intracellular receptor 1, sequence (Q9R0C9 whole entry): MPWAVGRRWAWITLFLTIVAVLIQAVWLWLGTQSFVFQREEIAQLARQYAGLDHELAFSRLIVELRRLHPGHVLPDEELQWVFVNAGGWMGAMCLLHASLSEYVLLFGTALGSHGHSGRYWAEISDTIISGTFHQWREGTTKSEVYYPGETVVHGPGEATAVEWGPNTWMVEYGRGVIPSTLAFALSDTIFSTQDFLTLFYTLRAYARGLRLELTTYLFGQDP
Norepinephrine transporter, sequence (Q9WTR4 whole entry): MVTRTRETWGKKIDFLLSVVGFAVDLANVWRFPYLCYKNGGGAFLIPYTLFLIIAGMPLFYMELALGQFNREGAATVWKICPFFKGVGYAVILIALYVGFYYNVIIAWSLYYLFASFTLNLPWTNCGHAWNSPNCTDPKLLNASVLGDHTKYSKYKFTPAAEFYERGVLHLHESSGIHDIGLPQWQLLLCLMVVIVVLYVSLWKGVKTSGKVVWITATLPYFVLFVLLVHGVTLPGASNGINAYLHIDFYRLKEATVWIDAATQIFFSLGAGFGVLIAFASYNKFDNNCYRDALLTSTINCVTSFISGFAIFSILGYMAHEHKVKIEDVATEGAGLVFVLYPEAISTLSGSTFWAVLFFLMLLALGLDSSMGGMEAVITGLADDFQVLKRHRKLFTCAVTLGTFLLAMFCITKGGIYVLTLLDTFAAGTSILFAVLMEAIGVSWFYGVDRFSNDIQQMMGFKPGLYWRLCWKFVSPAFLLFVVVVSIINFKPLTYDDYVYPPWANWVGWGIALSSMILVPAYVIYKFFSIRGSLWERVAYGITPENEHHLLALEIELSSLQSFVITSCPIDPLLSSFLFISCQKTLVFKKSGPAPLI
Sodium-dependent dopamine transporter, sequence (P23977 whole entry): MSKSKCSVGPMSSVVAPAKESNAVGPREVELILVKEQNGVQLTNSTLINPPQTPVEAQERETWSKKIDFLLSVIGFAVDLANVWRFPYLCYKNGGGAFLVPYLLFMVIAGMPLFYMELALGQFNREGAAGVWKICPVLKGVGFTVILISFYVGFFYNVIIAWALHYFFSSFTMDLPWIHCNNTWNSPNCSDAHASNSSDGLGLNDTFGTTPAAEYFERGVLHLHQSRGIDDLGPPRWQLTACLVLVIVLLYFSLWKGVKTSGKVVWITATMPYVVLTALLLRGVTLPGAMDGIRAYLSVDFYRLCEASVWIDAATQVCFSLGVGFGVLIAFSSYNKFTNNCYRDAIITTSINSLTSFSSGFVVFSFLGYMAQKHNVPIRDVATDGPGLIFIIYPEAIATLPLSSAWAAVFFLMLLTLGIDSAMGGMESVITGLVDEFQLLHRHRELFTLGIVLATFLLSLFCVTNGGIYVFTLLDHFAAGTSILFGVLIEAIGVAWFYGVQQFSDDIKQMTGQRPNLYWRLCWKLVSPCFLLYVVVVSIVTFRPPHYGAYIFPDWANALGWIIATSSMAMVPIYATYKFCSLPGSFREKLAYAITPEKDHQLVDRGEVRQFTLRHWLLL
Sodium-dependent serotonin transporter, sequence (P31652 whole entry): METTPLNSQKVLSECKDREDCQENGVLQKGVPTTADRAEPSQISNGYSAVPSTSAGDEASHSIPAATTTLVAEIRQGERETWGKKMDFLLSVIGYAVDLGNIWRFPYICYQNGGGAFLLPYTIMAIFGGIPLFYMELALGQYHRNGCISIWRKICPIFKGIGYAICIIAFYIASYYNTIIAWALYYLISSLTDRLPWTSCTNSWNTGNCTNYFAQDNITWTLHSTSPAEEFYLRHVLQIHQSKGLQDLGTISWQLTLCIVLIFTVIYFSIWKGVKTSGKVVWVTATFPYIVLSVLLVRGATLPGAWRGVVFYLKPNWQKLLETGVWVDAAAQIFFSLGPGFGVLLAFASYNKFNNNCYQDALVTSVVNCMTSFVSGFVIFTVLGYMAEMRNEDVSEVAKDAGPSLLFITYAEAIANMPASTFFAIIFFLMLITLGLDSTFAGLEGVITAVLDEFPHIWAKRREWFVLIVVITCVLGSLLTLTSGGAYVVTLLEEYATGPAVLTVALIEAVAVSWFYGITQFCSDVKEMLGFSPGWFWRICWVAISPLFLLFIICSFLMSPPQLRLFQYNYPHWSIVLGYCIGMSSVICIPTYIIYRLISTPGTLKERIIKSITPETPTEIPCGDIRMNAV

One may read the Ki as a dissociation constant, usually derived from enzyme kinetics or from competition with a known ligand. High values mean weaker binding, low ones tighter binding. `O=c1oc2ccccc2n1CCCCCCN1CCN(C2CCCCC2)CC1`: in the assay filed under Rattus norvegicus, the Ratio Ki came out at 1.5. Also, affinity in [1] was put at a Ki of 3.06 nM.
For the compound `S=c1oc2ccccc2n1CCCCN1CCN(C2CCCCC2)CC1`, the Ki in assay [1] is 0.77 nM.
Turning to `COc1cccc2c1CCCC2CCCN1CCN(C2CCCCC2)CC1` (configuration not stated), the Ki is 1.48 nM in assay [2] and 1.11 nM in [1]. Moreover, in the assay filed under Rattus norvegicus, the Ratio Ki was determined as 1.33.
In the case of `O=c1oc2ccccc2n1CCN1CCN(C2CCCCC2)CC1`, in [1], the inhibitory constant (Ki) came to 5.43 nM.
Still for that read-out and setting: under `O=c1sc2ccccc2n1CCN1CCN(C2CCCCC2)CC1` stands 2.25 nM; under `O=c1oc2ccccc2n1CCCN1CCN(C2CCCCC2)CC1`, 8.74 nM.
Still for that read-out and setting: under `O=c1sc2ccccc2n1CCCCN1CCN(C2CCCCC2)CC1` stands 0.39 nM.
Consider `CCCc1ccc2c(c1)sc(=O)n2CCN1CCCCCC1`, for which the Ki was found to be 0.12 nM in assay [2] and 831 nM in assay [1]. The Ratio Ki in the assay filed under Rattus norvegicus was found to be 0.00014. The outcome in the assay on Mus musculus was Active.
As for `O=c1oc2ccccc2n1CCCCCN1CCN(C2CCCCC2)CC1`, the Ratio Ki in the assay filed under Rattus norvegicus is 1.79. The same compound gave an inhibition constant Ki in assay [1] of 5.89 nM.
Turning to `O=c1sc2ccccc2n1CCCCCCN1CCN(C2CCCCC2)CC1`, the Ratio Ki in the assay filed under Rattus norvegicus amounted to 4.4. This compound yielded an inhibitory constant (Ki) in [1] of 1.49 nM.
In turn, `O=c1sc2ccccc2n1CCCCCN1CCN(C2CCCCC2)CC1` displayed an inhibitory constant (Ki) in assay [1] of 2.44 nM.
As to `O=c1oc2ccccc2n1CCCCN1CCN(C2CCCCC2)CC1`, in the assay filed under Rattus norvegicus, the Ratio Ki worked out at 6.15. Besides, in assay [1], the Ki is 1.83 nM.
On to `c1ccc2oc(SCCCCN3CCN(C4CCCCC4)CC3)nc2c1`, for which the Ki in [1] came to 3.77 nM.
For `S=c1sc2ccccc2n1CCCCN1CCN(C2CCCCC2)CC1`, the Ki in assay [3] was 1400 nM; in assay [4], over 10000 nM; in assay [1], 0.55 nM; in assay [5], 1330 nM; in assay [6] it was 1170 nM; at Glutamate NMDA receptor, over 10000 nM. The compound also came in with a Ki in [7] of over 10000 nM. Besides, in the assay listed under Rattus norvegicus, the Ratio Ki came to 2.33.
As for `O=c1sc2ccccc2n1CCCN1CCN(C2CCCCC2)CC1`, in the assay listed under Rattus norvegicus, the Ratio Ki came out at 1.84. The compound further gave a Ki in [1] of 3.05 nM.
